Data published in patent publication US7407958B2, “2-pyridyl substituted imidazoles as ALK5 and/or ALK4 inhibitors” (SK Chemicals Co., Ltd., priority 2004, dated 2008).

Columns and labels:
[1] = biological target: Lck (Homo sapiens, UniProt P06239); assay: Protein kinase activity in vitro; type: biochemical
[2] = biological target: CHK1 (Homo sapiens, UniProt O14757); assay: Protein kinase activity in vitro; type: biochemical
[3] = biological target: ALK5 (Homo sapiens, UniProt P36897, T204D); assay: biochemical
Method: The His-tagged, constitutively active ALK5 (T204D) and Smad3 full protein were expressed in insect cells using the Invitrogen BacNBlue baculovirus expression system. Expressed proteins were purified with Qiagen Ni-NTA resin column. The purified smad3 protein 200 ng was mixed with 100 μL of 0.1 M sodium bicarbonate coating buffer and coated into Flash-Plates by pipetting. Plates were covered and incubated at 4° C. for 16 hours. Then the plates were washed 3 times with 200 μL of coating buffer and allowed to block in 1% BSA in PBS at room temperature for 1 hour. The purified ALK5 protein 100 ng was mixed with 100 μL of reaction buffer containing 20 mM Tris-HCl (pH 7.4), 5 mM MgCl2, 1 mM CaCl2, 1 mM DTT, 1 μM ATP and 2 μCi ?-^32p-ATP, and 1 μL of each test compound of formula (I) prepared in 100% DMSO solution at different concentrations. The assay was then initiated with the addition of ALK5 reaction mixture into Smad3-coated Flash-Plates, followed by incubation at 30° C. for 3 hours. After incubation, the assay buffer was removed and washed 3 times with 200 μL of 10 mM sodium pyrophosphate solution. Then, the Flash-Plates were air-dried and counted on a Packard TopCount.

[4] = biological target: pp60^C-SRC (Homo sapiens, UniProt P12931); assay: Protein kinase activity in vitro; type: biochemical
[5] = tested on: Ca^2+/Calmodulin-Dep. II; assay: Protein kinase activity in vitro; type: biochemical
[6] = biological target: p38β (Homo sapiens, UniProt Q15759); assay: Protein kinase activity in vitro; type: biochemical
[7] = biological target: ERK1 (Homo sapiens, UniProt P27361); assay: Protein kinase activity in vitro; type: biochemical
[8] = biological target: PKCβ2 (Homo sapiens, UniProt P05771); assay: Protein kinase activity in vitro; type: biochemical
[9] = biological target: PKCδ (Homo sapiens, UniProt Q05655); assay: Protein kinase activity in vitro; type: biochemical
[10] = biological target: PKCε (Homo sapiens, UniProt Q02156); assay: Protein kinase activity in vitro; type: biochemical
[11] = biological target: p70^56k (Homo sapiens, UniProt P23443); assay: Protein kinase activity in vitro; type: biochemical
[12] = biological target: MEK1 (Homo sapiens, UniProt Q02750); assay: Protein kinase activity in vitro; type: biochemical
[13] = biological target: Cdk2/Cyclin A (Homo sapiens, UniProt P24941); assay: Protein kinase activity in vitro; type: biochemical
[14] = biological target: GSK-3β (Homo sapiens, UniProt P49841); assay: Protein kinase activity in vitro; type: biochemical
[15] = tested on: PKA, non-selective; assay: Protein kinase activity in vitro; type: biochemical
[16] = biological target: EGF Receptor (Homo sapiens, UniProt P00533); assay: Protein kinase activity in vitro; type: biochemical
[17] = biological target: Lyn A (Homo sapiens, UniProt P07948); assay: Protein kinase activity in vitro; type: biochemical; settings: 10 μM (two lines printed)
[18] = biological target: PDK1 (Homo sapiens, UniProt O15530); assay: Protein kinase activity in vitro; type: biochemical
[19] = biological target: Insulin receptor (Homo sapiens, UniProt P06213); assay: Protein kinase activity in vitro; type: biochemical
[20] = biological target: Cdk5/p35 (Homo sapiens, UniProt Q00535); assay: Protein kinase activity in vitro; type: biochemical
[21] = biological target: p38γ (Homo sapiens, UniProt P53778); assay: Protein kinase activity in vitro; type: biochemical
[22] = biological target: IKK-1 (Homo sapiens, UniProt O15111); assay: Protein kinase activity in vitro; type: biochemical
[23] = biological target: JNK2α2 (Homo sapiens, UniProt P45984); assay: Protein kinase activity in vitro; type: biochemical
[24] = biological target: JNK1α1 (Homo sapiens, UniProt P45983); assay: Protein kinase activity in vitro; type: biochemical
[25] = biological target: CHK2 (Homo sapiens, UniProt O96017); assay: Protein kinase activity in vitro; type: biochemical
[26] = biological target: PKCζ (Homo sapiens, UniProt Q05513); assay: Protein kinase activity in vitro; type: biochemical
[27] = biological target: PKCμ (Homo sapiens, UniProt Q15139); assay: Protein kinase activity in vitro; type: biochemical
[28] = biological target: HER2 receptor (Homo sapiens, UniProt P04626); assay: Protein kinase activity in vitro; type: biochemical
[29] = biological target: PKCη (Homo sapiens, UniProt P24723); assay: Protein kinase activity in vitro; type: biochemical
[30] = biological target: p38δ (Homo sapiens, UniProt O15264); assay: Protein kinase activity in vitro; type: biochemical
[31] = biological target: PKCγ (Homo sapiens, UniProt P05129); assay: Protein kinase activity in vitro; type: biochemical
[32] = biological target: PKCα (Homo sapiens, UniProt P17252); assay: Protein kinase activity in vitro; type: biochemical
[33] = biological target: PKBα/Akt1 (Homo sapiens, UniProt P31749); assay: Protein kinase activity in vitro; type: biochemical
[34] = biological target: Cdk1/Cyclin B (Homo sapiens, UniProt P06493); assay: Protein kinase activity in vitro; type: biochemical
[35] = biological target: PKCβ1 (Homo sapiens, UniProt P05771); assay: Protein kinase activity in vitro; type: biochemical
[36] = biological target: p38α (Homo sapiens, UniProt Q16539); assay: Protein kinase activity in vitro; type: biochemical
[37] = biological target: IKK-2 (Homo sapiens, UniProt O14920); assay: Protein kinase activity in vitro; type: biochemical

Sequence of PKCμ (Q15139 whole entry): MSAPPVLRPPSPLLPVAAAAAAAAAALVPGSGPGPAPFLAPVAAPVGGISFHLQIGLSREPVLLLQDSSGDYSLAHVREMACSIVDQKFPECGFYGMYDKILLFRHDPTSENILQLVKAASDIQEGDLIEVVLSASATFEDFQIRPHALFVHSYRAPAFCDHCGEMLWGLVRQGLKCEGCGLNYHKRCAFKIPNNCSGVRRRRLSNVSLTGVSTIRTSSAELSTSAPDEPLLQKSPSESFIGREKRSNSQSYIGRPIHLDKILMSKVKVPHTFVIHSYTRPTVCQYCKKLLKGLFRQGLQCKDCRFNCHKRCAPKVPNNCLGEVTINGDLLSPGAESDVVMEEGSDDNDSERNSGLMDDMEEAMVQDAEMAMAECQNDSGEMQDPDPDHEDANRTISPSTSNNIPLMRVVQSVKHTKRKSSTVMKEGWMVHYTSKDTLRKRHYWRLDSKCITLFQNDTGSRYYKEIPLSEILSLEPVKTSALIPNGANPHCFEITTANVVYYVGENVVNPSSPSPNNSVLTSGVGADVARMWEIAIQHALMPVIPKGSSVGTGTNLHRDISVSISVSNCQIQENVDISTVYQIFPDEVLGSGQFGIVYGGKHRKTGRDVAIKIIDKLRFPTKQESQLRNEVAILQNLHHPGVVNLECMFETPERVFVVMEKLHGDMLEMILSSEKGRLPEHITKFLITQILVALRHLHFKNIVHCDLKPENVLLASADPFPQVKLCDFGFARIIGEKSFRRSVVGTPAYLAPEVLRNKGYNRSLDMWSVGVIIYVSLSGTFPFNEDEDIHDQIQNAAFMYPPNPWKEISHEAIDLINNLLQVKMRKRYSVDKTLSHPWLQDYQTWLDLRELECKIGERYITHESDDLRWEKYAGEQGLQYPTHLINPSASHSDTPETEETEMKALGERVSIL
Sequence of JNK2α2 (P45984 whole entry): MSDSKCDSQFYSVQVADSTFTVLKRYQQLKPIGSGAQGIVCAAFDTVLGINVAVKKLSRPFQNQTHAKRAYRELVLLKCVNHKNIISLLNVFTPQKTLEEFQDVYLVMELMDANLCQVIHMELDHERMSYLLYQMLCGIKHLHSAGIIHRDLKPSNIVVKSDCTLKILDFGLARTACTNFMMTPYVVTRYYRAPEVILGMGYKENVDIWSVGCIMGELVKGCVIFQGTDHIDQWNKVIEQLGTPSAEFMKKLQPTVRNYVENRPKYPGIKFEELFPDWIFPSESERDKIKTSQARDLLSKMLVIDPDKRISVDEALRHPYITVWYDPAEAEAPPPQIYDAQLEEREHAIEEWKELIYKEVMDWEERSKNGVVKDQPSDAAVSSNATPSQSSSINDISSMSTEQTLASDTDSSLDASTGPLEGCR
Sequence of p38α (Q16539 whole entry): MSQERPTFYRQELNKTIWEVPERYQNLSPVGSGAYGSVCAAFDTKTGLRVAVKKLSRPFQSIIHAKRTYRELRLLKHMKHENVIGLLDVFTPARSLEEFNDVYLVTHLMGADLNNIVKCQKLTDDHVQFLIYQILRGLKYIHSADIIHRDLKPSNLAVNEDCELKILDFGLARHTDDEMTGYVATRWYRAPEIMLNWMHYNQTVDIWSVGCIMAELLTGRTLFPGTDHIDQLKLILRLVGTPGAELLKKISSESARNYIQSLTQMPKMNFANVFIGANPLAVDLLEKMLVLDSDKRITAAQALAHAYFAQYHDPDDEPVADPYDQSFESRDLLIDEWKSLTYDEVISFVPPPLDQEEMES
Sequence of Lyn A (P07948 whole entry, species assumed): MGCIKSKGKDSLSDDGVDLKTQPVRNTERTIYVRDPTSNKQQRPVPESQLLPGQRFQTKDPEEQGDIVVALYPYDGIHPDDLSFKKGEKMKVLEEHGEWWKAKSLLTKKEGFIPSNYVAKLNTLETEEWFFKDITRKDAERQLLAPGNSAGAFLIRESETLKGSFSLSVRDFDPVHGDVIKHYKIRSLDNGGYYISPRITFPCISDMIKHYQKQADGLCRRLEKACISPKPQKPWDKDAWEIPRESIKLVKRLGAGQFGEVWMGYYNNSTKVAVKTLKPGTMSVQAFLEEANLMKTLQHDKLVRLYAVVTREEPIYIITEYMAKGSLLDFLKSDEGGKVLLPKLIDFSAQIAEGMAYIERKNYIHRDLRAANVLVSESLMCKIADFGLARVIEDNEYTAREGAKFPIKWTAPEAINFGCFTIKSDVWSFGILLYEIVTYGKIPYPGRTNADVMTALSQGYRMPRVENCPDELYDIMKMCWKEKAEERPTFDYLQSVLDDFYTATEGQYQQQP
Sequence of MEK1 (Q02750 whole entry, species assumed): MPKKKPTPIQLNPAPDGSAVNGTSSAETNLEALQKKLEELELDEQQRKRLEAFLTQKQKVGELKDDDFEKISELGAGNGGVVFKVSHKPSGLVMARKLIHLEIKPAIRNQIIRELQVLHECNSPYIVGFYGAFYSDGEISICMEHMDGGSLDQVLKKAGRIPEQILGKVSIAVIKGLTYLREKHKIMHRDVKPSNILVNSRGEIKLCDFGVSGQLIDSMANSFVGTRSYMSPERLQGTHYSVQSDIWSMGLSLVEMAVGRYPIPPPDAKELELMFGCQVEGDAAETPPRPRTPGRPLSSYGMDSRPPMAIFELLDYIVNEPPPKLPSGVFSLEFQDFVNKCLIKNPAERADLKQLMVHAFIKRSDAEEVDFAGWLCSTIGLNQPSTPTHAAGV
Sequence of p38δ (O15264 whole entry): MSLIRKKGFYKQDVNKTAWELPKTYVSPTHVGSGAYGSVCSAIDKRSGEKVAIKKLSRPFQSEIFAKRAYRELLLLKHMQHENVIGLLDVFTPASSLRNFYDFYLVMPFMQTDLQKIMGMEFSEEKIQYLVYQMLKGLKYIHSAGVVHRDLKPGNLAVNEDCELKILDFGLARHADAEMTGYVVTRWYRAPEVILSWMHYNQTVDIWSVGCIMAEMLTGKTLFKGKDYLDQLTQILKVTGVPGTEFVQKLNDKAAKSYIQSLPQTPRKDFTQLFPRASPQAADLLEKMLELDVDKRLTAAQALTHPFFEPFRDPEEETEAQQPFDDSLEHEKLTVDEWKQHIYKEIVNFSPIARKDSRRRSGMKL
Sequence of PKCζ (Q05513 whole entry): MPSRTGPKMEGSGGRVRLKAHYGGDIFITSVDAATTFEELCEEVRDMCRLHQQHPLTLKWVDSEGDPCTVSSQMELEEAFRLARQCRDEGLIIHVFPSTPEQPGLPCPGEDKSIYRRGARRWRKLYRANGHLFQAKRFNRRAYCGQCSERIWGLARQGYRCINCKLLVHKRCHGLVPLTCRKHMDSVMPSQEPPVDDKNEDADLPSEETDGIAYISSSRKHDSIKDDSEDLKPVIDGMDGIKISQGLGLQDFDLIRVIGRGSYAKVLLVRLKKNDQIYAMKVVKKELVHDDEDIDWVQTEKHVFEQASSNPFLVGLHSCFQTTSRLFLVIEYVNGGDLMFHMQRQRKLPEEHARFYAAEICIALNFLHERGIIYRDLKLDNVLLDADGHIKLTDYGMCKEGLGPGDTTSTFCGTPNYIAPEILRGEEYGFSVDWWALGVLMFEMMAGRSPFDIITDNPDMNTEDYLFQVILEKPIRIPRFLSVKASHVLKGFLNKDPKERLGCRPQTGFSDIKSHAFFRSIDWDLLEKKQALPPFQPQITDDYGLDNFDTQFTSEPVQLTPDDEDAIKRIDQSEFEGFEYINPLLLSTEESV
Sequence of PDK1 (O15530 whole entry): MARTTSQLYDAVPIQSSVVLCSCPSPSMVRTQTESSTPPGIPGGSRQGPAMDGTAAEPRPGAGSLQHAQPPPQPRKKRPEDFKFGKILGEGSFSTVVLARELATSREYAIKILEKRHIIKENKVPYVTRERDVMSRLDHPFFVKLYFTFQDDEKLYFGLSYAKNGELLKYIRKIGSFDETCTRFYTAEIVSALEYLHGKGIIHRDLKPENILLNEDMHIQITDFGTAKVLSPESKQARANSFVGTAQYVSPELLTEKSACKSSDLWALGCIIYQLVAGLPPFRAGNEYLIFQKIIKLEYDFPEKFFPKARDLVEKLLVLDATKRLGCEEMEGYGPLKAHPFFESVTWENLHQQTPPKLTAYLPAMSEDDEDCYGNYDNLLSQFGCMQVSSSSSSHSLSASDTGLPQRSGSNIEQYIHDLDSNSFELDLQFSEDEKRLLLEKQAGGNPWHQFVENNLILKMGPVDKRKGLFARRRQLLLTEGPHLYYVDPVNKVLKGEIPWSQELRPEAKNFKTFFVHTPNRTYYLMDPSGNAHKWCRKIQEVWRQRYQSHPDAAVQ
Sequence of Cdk5/p35 (Q00535 whole entry, species assumed): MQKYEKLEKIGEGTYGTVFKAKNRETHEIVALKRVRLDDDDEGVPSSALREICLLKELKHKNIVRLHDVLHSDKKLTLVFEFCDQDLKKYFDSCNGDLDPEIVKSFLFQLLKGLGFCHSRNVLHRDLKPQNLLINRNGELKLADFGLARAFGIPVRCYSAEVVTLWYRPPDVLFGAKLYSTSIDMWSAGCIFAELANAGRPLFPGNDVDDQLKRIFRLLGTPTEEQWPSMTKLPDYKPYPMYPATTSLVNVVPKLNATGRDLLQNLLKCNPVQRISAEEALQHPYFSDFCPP
Sequence of Cdk5/p35 (Q15078 whole entry partner, species assumed): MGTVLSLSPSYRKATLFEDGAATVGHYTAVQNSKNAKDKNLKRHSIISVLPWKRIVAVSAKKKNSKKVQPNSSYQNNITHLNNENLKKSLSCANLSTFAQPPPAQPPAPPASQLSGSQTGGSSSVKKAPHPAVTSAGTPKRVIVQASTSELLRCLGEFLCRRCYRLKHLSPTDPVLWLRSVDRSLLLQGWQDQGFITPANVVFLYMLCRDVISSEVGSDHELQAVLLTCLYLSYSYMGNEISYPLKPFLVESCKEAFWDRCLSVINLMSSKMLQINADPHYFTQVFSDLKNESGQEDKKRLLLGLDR

Cc1cccc(-c2[nH]c(Cc3cccc(C(N)=O)c3)nc2-c2ccc3nccnc3c2)n1 [Example 41, 3-((5-(6-methylpyridin-2-yl)-4-(quinoxalin-6-yl)-1(3)H-imidazol-2-yl)methyl)benzamide]
inhibition at 10 µM [1]: 17% | inhibition at 10 µM [2]: 10% | IC50 [3]: 5.3 nM | inhibition at 10 µM [4]: -3% | % inhibition at 10 μM [5]: 1% | inhibition at 10 µM [6]: 48% | inhibition at 10 µM [7]: 51% | inhibition at 10 µM [8]: -2% | inhibition at 10 µM [9]: 3% | inhibition at 10 µM [10]: 1% | inhibition at 10 µM [11]: -3% | inhibition at 1 µM ([12]; 1 μM): 4% | inhibition at 10 µM ([12]; 10 μM): 66% | inhibition at 10 µM [13]: 6% | inhibition at 10 µM [14]: 21% | % inhibition at 10 μM [15]: 27% | inhibition at 10 µM [16]: 2% | inhibition at 10 µM [17]: 37% | % inhibition at 10 μM ([17]; 10 µM): 42% | inhibition at 10 µM [18]: 3% | inhibition at 10 µM [19]: 15% | inhibition at 10 µM [20]: -2% | inhibition at 10 µM [21]: 15% | inhibition at 10 µM [22]: 2% | inhibition at 1 µM ([23]; 1 μM): 40% | inhibition at 10 µM ([23]; 10 μM): 81% | inhibition at 10 µM [24]: 11% | inhibition at 10 µM [25]: 18% | inhibition at 10 µM [26]: -9% | inhibition at 1 µM ([27]; 1 μM): 31% | inhibition at 10 µM ([27]; 10 μM): 64% | inhibition at 10 µM [28]: 11% | inhibition at 10 µM [29]: -6% | inhibition at 10 µM [30]: -19% | inhibition at 10 µM [31]: 3% | inhibition at 10 µM [32]: -6% | inhibition at 10 µM [33]: 17% | inhibition at 10 µM [34]: -3% | inhibition at 10 µM [35]: 10% | inhibition at 1 µM ([36]; 1 μM): 25% | inhibition at 10 µM ([36]; 10 μM): 76% | inhibition at 10 µM [37]: 1%
